Experimental data published in patent US20220296669A1, “NOVEL COMPOSITIONS AND USES THEREOF” (priority 2019, published 2022).

Experiments:
collagen I scaffolds = test: 131-iodine coating efficiency (binding) assay on collagen I scaffolds with/without PLL precoating; conditions: with PLL as intermediate layer vs without PLL / controls, 1 mm thin and 2 mm thick scaffolds
Method: Materials—MDS Collagen was obtained from MedSkin Solutions Dr. Suwelack A G (MDS). 1 mm thickness refers to thin, and 2 mm thickness refers to thick collagen scaffold, respectively. c-poly-L-lysine hydrobromide (PLL, 30 000-150 000 g/mol) was purchased from Sigma-Aldrich, St. Louis, USA. Collagen VI and its derived peptides were prepared as described in [18]. LL-37 was a kind gift of Dr. Artur Schmidtchen, University of Lund. NAT26, HKH20, GGL27 were kind gifts of Dr. Inga-Maria Frick, University of Lund. α defensins 3-6 and β defensins 1-4 were kind gifts of Dr. Arne Egesten, University of Lund. Proteins were radiolabeled with 131-iodine according to standard protocols prior to coating assays on collagen scaffold surfaces.
Biomaterial surface coating with PLL—collagen scaffold discs with a diameter of 5 mm and thickness of 2 mm (thick scaffold) and 1 mm (thin scaffold), respectively, were punched out from a larger sheet (approximately 10 cm×10 cm). Prior to collagen coating, 150 μl poly-L-lysine hydrobromide solution (0.2 mg/ml) were applied on the collagen scaffold discs by incubation at 60° C. for 2 h. Afterwards the discs were washed twice in distilled water to remove unbound PLL, air-dried and stored at room temperature.
(§1) Biomaterial surface coating with bioactive collagen VI molecules—collagen scaffold discs, after prior treatment with PLL, were put into 24-well cell culture plates (TPP, Trasadingen, Switzerland). They were coated by incubation with 150 μl bovine collagen VI microfibrils (concentration 15 μM), or with 150 μl collagen type VI peptides (concentration 3 μM), or with 150 ml LL-37, NAT26, HKH20, GGL27, α defensins 3-6 and β defensins 1-4 at 4° C. for 2 h, followed by rinsing with distilled water and air-drying. The coating efficiencies of the different biomolecules were assessed by determining the ratio between bound and free 131-iodine radioactivity associated with collagen scaffolds by determining radioactivity as cpm values in a γ-counter.

[1] = 131-iodine coating efficiency (binding) assay on titanium surfaces with/without PLL precoating; conditions: with PLL as intermediate layer vs without PLL / controls
Method: Materials—Titanium discs with a diameter and thickness of 5 mm and 0.25 mm, respectively, and with a maximum average roughness (Ra) of 0.8 μm, were punched out from a commercially available titanium foil (Alfa Aesar GmbH & Co. KG, Karlsruhe, Germany). ε-poly-L-lysine hydrobromide (PLL, 30,000-150,000 g/mol) was purchased from Sigma-Aldrich, St. Louis, USA. Collagen VI and its derived peptides were prepared as described in [18]. LL-37 was a kind gift of Dr. Artur Schmidtchen, University of Lund. NAT26, HKH20, GGL27 were kind gifts of Dr. Inga-Maria Frick, University of Lund. α defensins 3-6 and β defensins 1-4 were kind gifts of Dr. Arne Egesten, University of Lund. Proteins were radiolabeled with 131-iodine according to standard protocols prior to coating assays on collagen scaffold surfaces.
Biomaterial surface coating with PLL—Titanium discs were degreased with chloroform and 97% ethanol, followed by rinsing with distilled water, and air-drying at room temperature. Subsequently, prior to collagen coating, 150 μl poly-L-lysine hydrobromide (70,000-150,000 g/mol, Sigma-Aldrich, St. Louis, USA, 0.2 mg/ml) were applied on desired titanium discs by incubation at 60° C. for 2 hours. Afterwards, the titanium was washed twice in distilled water to remove unbound PLL, air-dried and stored at room temperature.
as §1, with “molecules—Titanium” for “molecules—collagen scaffold”, “μl” for “μl bovine collagen VI microfibrils (concentration 15 μM), or with 150 μl”, “μM),” for “μM), or with 150 ml LL-37, NAT26, HKH20, GGL27, α defensins 3-6 and β defensins 1-4”, “hours,” for “h,”, “titanium discs” for “collagen scaffolds”

[2] = system: Human Dermal Fibroblasts, adult (HDFa); test: Fibroblast adherence on coated surfaces, scanning electron microscopy; type: cell-based; conditions: with PLL as intermediate layer vs without PLL and other parts of collagen VI, measured in cells/mm^2; for fibroblast adherence on collagen I scaffolds: FIG. 11; for fibroblast adherence on titanium surfaces: titanium surface, FIG. 7
Method: (§2) Collagen I scaffolds and titanium surfaces were coated with collagen VI microfibrils, each of collagen VI alpha 1-3 chains and the bioactive collagen VI peptides GVR28, FYL25, FFL25, VTT30, and SFV33 as described in Examples 1 and 2 above.
(§3) Adherence of fibroblasts or keratinocytes was assessed by scanning electron microscopy.
(§4) Cells and culture conditions—Keratinocytes (Human Epidermal Keratinocytes, adult (HEKa), C-005-5C, Gibco) and fibroblasts (Human Dermal Fibroblasts, adult (HDFa), C0135C, Gibco) were purchased from Thermo Fisher Scientific, Waltham, USA. Cryopreserved cells were thawed according to the manufacturer's protocol and seeded on three 75 mL tissue culture flasks, each containing 15 mL of keratinocyte basal medium (KBM; KBM Gold, Lonza Group AG, Basel, Switzerland). The medium was supplemented with transferrin, recombinant human epidermal growth factor (rhEGF), bovine pituitary extract (BPE), antibiotics (Gentamycin: GA-1000), insulin, epinephrine and hydrocortisone (PeproTech, New Jersey, USA). For fibroblasts, complete growth medium consisting of Dulbecco's modified eagle medium (D-MEM) with 100 mM sodium pyruvate (PAA Laboratories, Pasching, Austria), supplemented with 10% fetal bovine serum (FBS) (PAA Laboratories, Pasching, Austria) and 2 mM L-glutamine (Invitrogen, Carlsbad, USA), was used. Medium was changed every day and substituted with additional rhEGF at a final dilution of 1:1000. The cells were incubated for seven days until they reached confluency. The cells were harvested by trypsinization (TrypLE™ Select (1x), Life Technologies Corporation, Carlsbad, USA) and transferred into freezing medium, containing 1% BSA (Sigma Aldrich, St. Louis, USA) and 10% DMSO (Sigma-Aldrich, St. Louis, USA). 1 mL aliquots of the cell suspension were transferred into cryotubes. The cryotubes were transferred to the freezer at −80° C. for 24 hours and then finally stored in liquid nitrogen until further use.
(§5) Cell attachment—Cells were gently thawed and counted in a hemocytometer using trypan blue (Fisher Scientific, Waltham, USA) to estimate the number of live/dead cells. They were finally diluted in appropriate media to final cell concentrations of 16700 viable cells/mL. 300 μL cell solution were added on top of punched out titanium or collagen I scaffold samples, followed by incubation at 37° C. for 1 hour. Growth medium was removed and the cells were gently washed twice with PBS. The cells were then fixed by the addition of 4% formaldehyde in PBS, followed by incubation at 4° C. for 20 minutes. Finally, cells were rinsed three times in PBS and stored in 3 mL PBS until further evaluation by scanning electron microscopy.

[3] = system: Human Epidermal Keratinocytes, adult (HEKa); test: Keratinocyte adherence on coated surfaces, scanning electron microscopy; type: cell-based; conditions: with PLL as intermediate layer vs without PLL and other parts of collagen VI; for keratinocyte adherence on collagen I scaffolds: FIG. 12; for keratinocyte adherence on titanium surfaces: titanium surface, FIG. 8
Method: as §2, §3, §4, §5

Pseudomonas aeruginosa = test: Gram-negative bacterial killing efficiency on coated surfaces, scanning electron microscopy; type: cell-based; conditions: with PLL as intermediate layer vs without PLL and other parts of collagen VI; for killing of Pseudomonas aeruginosa on collagen I scaffolds: collagen I scaffolds 1 mm / 2 mm, FIG. 9; for killing of Pseudomonas aeruginosa on titanium surfaces: titanium surface, FIG. 5
Method: (§6) Collagen I scaffolds and titanium surfaces were coated with collagen VI microfibrils, each of collagen VI alpha 1-3 chains and the bioactive collagen VI peptides GVR28, FYL25, FFL25, VTT30, and SFV33 as described in Examples 1 and 2 above, respectively.
(§7) Killing efficiency of the gram-negative Pseudomonas aeruginosa bacteria and the gram-positive Staphylococcus aureus were assessed by scanning electron microscopy. For killing efficiency and scanning electron microscopy experiments, titanium scaffold discs with a size of 5 mm and a thickness of 0.25 mm, and collagen I scaffold discs with a size of 5 mm and a thickness of 1 mm (thin scaffold) or 2 mm (thick scaffold), respectively, were punched out and coated with PLL as described in Examples 1 and 2 above. They were subsequently incubated with 500 μL of bacterial suspension (5×10^8 cfu/ml bacteria) and incubated for 2 hours at 37° C. in a humid atmosphere containing 5% CO2.
(§8) The discs were then prepared for scanning electron microscopy. In short, samples were incubated overnight at 4° C. with fixation buffer (0.15M sodium cacodylate, pH 7.4, containing 2.5% v/v glutaraldehyde) and subsequently washed with cacodylate buffer (0.15M sodium cacodylate, pH 7.4), followed by a standard dehydration series with ethanol-water mixtures. Specimens were then dried in liquid CO2, using ethanol as an intermediate solvent. Samples were mounted on aluminium discs and coated with 20 nm gold/palladium. Finally, samples were investigated with an XL 30 FEG scanning electron microscope and images were processed by AnalySIS ITEM software. Viable and non-viable bacteria were directly identified and quantified under in the scanning electron microscope due to their structural differences.

Staphylococcus aureus = test: Gram-positive bacterial killing efficiency on coated surfaces, scanning electron microscopy; type: cell-based; conditions: with PLL as intermediate layer vs without PLL and other parts of collagen VI; for killing of Staphylococcus aureus on collagen I scaffolds: collagen I scaffolds 1 mm / 2 mm, FIG. 10; for killing of Staphylococcus aureus on titanium surfaces: titanium surface, FIG. 6
Method: as §6, §7, §8

[4] = listed as collagen type VI alpha-3 chain

With “FYLKTYRSQAPVLDAIRRLRLRGGS (FYL25 peptide)” the “coating efficiency (binding) on collagen I scaffolds” value (collagen I scaffolds) was “superior coating” and the “coating efficiency (binding) on titanium surfaces” value [1] was “superior coating”.

With “FFLKDFSTKRQIIDAINKVVYKGGR (FFL25 peptide)” the “coating efficiency (binding) on collagen I scaffolds” value (collagen I scaffolds) was “superior coating”, the “coating efficiency (binding) on titanium surfaces” value [1] was “superior coating” and the “fibroblast adherence on collagen I scaffolds” value [2] was “considerably enhanced”. For the same substance, the “fibroblast adherence on titanium surfaces” value [2] was “considerably enhanced”, the “keratinocyte adherence on collagen I scaffolds” value [3] was “considerably enhanced” and the “keratinocyte adherence on titanium surfaces” value [3] was “considerably enhanced”.

For “GVRPDGFAHIRDFVSRIVRRLNIGPSKV (GVR28 peptide)”, the “coating efficiency (binding) on collagen I scaffolds” value (collagen I scaffolds) was “superior coating”, the “coating efficiency (binding) on titanium surfaces” value [1] was “superior coating” and the “fibroblast adherence on collagen I scaffolds” value [2] was “considerably enhanced”. The “fibroblast adherence on titanium surfaces” value [2] was “considerably enhanced”, the “keratinocyte adherence on collagen I scaffolds” value [3] was “considerably enhanced” and the “keratinocyte adherence on titanium surfaces” value [3] was “considerably enhanced”.

For “collagen VI alpha-3 chain: alpha-3 polypeptide chain of collagen type VI (UniProt P12111)”, the “coating efficiency (binding) on collagen I scaffolds” value (collagen I scaffolds) was “considerably enhanced”, the “coating efficiency (binding) on collagen I scaffolds” value (collagen I scaffolds; [4]) was “superior coating” and the “coating efficiency (binding) on titanium surfaces” value [1] was “considerably enhanced”. The “coating efficiency (binding) on titanium surfaces” value [1, 4] was “superior coating”, the “killing of Pseudomonas aeruginosa on collagen I scaffolds” value (Pseudomonas aeruginosa) was “considerably enhanced” and the “killing of Pseudomonas aeruginosa on titanium surfaces” value (Pseudomonas aeruginosa) was “considerably enhanced”. The “killing of Staphylococcus aureus on collagen I scaffolds” value (Staphylococcus aureus) was “considerably enhanced”, the “killing of Staphylococcus aureus on titanium surfaces” value (Staphylococcus aureus) was “considerably enhanced” and the “fibroblast adherence on collagen I scaffolds” value [2] was “considerably enhanced”. The “fibroblast adherence on titanium surfaces” value [2] was “considerably enhanced”, the “keratinocyte adherence on collagen I scaffolds” value [3] was “considerably enhanced” and the “keratinocyte adherence on titanium surfaces” value [3] was “considerably enhanced”.

In the case of “SFVARNTFKRVRNGFLMRKVAVFFSNTPTRASP (SFV33 peptide)”, the “coating efficiency (binding) on collagen I scaffolds” value (collagen I scaffolds) is reported as “superior coating”, the “coating efficiency (binding) on titanium surfaces” value [1] is reported as “superior coating” and the “killing of Pseudomonas aeruginosa on collagen I scaffolds” value (Pseudomonas aeruginosa) is reported as “considerably enhanced”. The “killing of Pseudomonas aeruginosa on titanium surfaces” value (Pseudomonas aeruginosa) was “considerably enhanced”, the “killing of Staphylococcus aureus on collagen I scaffolds” value (Staphylococcus aureus) was “considerably enhanced” and the “killing of Staphylococcus aureus on titanium surfaces” value (Staphylococcus aureus) was “considerably enhanced”.

In the case of “VTTEIRFADSKRKSVLLDKIKNLQVALTSK (VTT30 peptide)”, the “coating efficiency (binding) on collagen I scaffolds” value (collagen I scaffolds) is reported as “superior coating”, the “coating efficiency (binding) on titanium surfaces” value [1] is reported as “superior coating” and the “fibroblast adherence on collagen I scaffolds” value [2] is reported as “considerably enhanced”. The “fibroblast adherence on titanium surfaces” value [2] was “considerably enhanced”, the “keratinocyte adherence on collagen I scaffolds” value [3] was “considerably enhanced” and the “keratinocyte adherence on titanium surfaces” value [3] was “considerably enhanced”.
